Data published in patent US8071606B2, “Substituted pyrazinone amides useful for activation of glucokinase” (Pfizer Inc., priority 2009, dated 2011).

How the values were obtained:
[1] = molecular target: T1, recombinant human glucokinase (beta cell isoform, His-tagged) (Homo sapiens, UniProt P35557); experiment: Assay 1: activator potency and maximum activation at 5 mM glucose (coupled PK/LDH, NADH depletion, A340); type: biochemical; settings: for Emax: % Maximum Activation=(Va/Vo−1)×100; for EC50: glucokinase activation, pH 7.1, room temperature
T1 construct: Full-length glucokinase (beta cell isoform) was His-tagged at the N-terminus; His tag (N); made in house; host or cells: E. coli BL21(DE3), pBCGK vector
T1 sequence (P35557 1-465): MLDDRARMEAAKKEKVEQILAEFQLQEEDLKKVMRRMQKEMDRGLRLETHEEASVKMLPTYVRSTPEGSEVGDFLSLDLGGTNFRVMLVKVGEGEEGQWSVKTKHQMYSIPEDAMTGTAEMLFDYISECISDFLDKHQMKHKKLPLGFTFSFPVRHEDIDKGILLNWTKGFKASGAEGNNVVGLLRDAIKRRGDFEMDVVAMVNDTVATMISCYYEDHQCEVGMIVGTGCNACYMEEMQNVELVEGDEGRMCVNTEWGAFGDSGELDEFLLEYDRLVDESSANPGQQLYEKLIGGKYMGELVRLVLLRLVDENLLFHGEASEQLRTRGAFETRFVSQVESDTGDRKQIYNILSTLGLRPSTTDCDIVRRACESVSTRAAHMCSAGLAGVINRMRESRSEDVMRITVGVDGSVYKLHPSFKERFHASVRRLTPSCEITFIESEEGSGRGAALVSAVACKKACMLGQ
Description: (§1) Representative compounds of this invention were evaluated in biochemical assays (Assay 1 or Assay 2) to characterize their glucokinase activation properties. The recombinant human glucokinase protein utilized in both assays was prepared and purified as described below. • Beta Cell Glucokinase His-Tag Growth and Induction Conditions: BL21(DE3) cells (Invitrogen Corporation, Carlsbad, Calif.) containing pBCGK (C or N His) vector were grown at 37° C. (in 2XYT) until the OD600 was between 0.6-1.0. Expression was induced by addition of isopropylthiogalactoside to a final concentration of 0.1-0.2 mM to the cells which were then incubated overnight at 23° C. The next day, cells were harvested via centrifugation at 5000 rpm for 15 minutes at 4° C. The cell pellet was stored at −80° C. for future purification. • Beta Cell Glucokinase His-Tag Purification Conditions: A Ni-NTA (Quigan, Germantown, Md.) column (15-50 mL) was used for separation. Two buffers were prepared, 1) a lysis/nickel equilibration and wash buffer and 2) a nickel elution buffer. The lysis/equilibration/wash buffer was prepared as such: 25 mM HEPES buffer at pH 7.5, 250 mM NaCl, 20 mM imidazole, and 14 mM […] as final concentrations. The elution buffer was prepared as such: 25 mM HEPES at pH 7.5, 250 mM NaCl, 400 mM imidazole, and 14 mM β-mercaptoethanol as final concentrations. The buffers were each filtered with a 0.22 μm filter prior to use. The cell pellet (1 L culture) was resuspended in 300 mL of the lysis/equilibration buffer. The cells were then lysed (3 times) with a Microfluidics Model 110Y microfluidizer (Microfluidics Corporation, Newton, Mass.). The slurry was centrifuged with a Beckman Coulter Model LE-80K ultracentrifuge (Beckman Coulter, Fullerton, Calif.) at 40,000 rpm for 45 minutes at 4° C. The supernatant was transferred to a chilled flask. A volume of 20 μl was saved for gel analysis. A Pharmacia AKTA (GMI, Inc., Ramsey, Minn.) purification system was used for separation. The prime lines were purged with lysis/equilibration buffer. The Ni-NTA column was equilibrated with 200 mL of the lysis/equilibration buffer at a flow rate of 5 mL/minute. The supernantant was loaded over the column at 4 mL/minute and the flow-through was collected in a flask. The unbound proteins were washed with lysis/equilibration buffer at a flow rate of 5 mL/minute until the ultraviolet reaches baseline. The protein was then eluted from the column with the imidazole elution buffer via imidazole gradient 20 mM to 400 mM over 320 mL. The column was then stripped of any additional protein with 80 mL of the elution buffer. The elution fractions were each 8 mL, for a total yield of 50 samples. Fractions were analyzed by sodium dodecyl sulfate polyacrylamide (SDS-PAGE) and the fractions containing protein of interest were pooled and concentrated to 10 mL using ultrafiltration cell with a 10,000 molecular weight cut-off (MWCO) Millipore membrane (Sigma-Aldrich, St. Louis, Mo.) under nitrogen gas (60 psi). Protein was further purified by size exclusion chromatography (SEC) using a […] (320 mL) (Amersham Pharmacia, Uppsala, Sweden). SEC was equilibrated with 450 mL sizing buffer containing 25 mM HEPES pH 7.0, 50 mM NaCl, and 5 mM dithiothreitol. Concentrated protein was then loaded over SEC and elution with 400 mL sizing buffer was performed overnight at 0.5 mL/minute. The elution fractions were 5 mL each. The fractions were analyzed by SDS-PAGE and protein containing fractions were pooled. Concentration was measured using Bradford Assay/BSA Standard. Purified protein was stored in small aliquots at −80° C. Assay 1: Evaluating Activator Potency and Maximum Activation at 5 mM Glucose
Full-length glucokinase (beta cell isoform) was His-tagged at the N-terminus and purified by a Ni column followed by size exclusion chromatography as described above. […]

[2] = molecular target: T2, recombinant human glucokinase (Homo sapiens, UniProt P35557); experiment: Assay 2: activator potency in a matrix assay at multiple glucose concentrations (22 compound x 16 glucose concentrations); type: biochemical; settings: concentration of compound affording a 50% reduction in the enzyme's Km for glucose, read-out: Intrinsic EC50
T2 construct: His tag; made in house; host or cells: E. coli BL21(DE3), pBCGK vector
T2 sequence (P35557 1-465): T1 sequence (P35557 1-465)
Description: as §1, with “Concentrated protein was then loaded over SEC and elution with 400 mL sizing buffer was performed overnight at 0.5 mL/minute. The elution fractions were 5 mL each.” left out, “Purified protein was stored in small aliquots at −80° C. Assay 1: Evaluating Activator Potency and Maximum Activation at 5 mM Glucose” left out

Row | SMILES | Emax [1] | EC50 [1] | EC50 [2]
1 | O=C(O)c1ccc(NC(=O)[C@H](CC2CCCC2)n2cc(C(F)(F)F)ncc2=O)nc1 [Example 2, (S)-6-(3-cyclopentyl-2-(2-oxo-5-(trifluoromethyl)pyrazin-1(2H)-yl)propanamido)nicotinic acid] | 117% | 0.453 µM | 
2 | O=C(O)Cc1ccc(NC(=O)[C@H](CC2CCCC2)n2cc(C(F)(F)F)ncc2=O)nc1 [Example 8, (S)-2-(6-(3-cyclopentyl-2-(2-oxo-5-(trifluoromethyl)pyrazin-1(2H)-yl)propanamido)pyridin-3-yl)acetic acid] |  |  | 2300 nM
3 | Cc1ccc(NC(=O)[C@H](CC2CCCC2)n2cc(C(F)(F)F)ncc2=O)nc1 [Example 4, (S)-3-cyclopentyl-N-(5-methylpyridin-2-yl)-2-(2-oxo-5-(trifluoromethyl)pyrazin-1(2H)-yl)propanamide] | 99 to 100% | 0.27 to 0.37 µM | 
4 | O=C(O)c1ccc(NC(=O)[C@H](CC2CCCCC2)n2cc(C(F)(F)F)ncc2=O)nc1 [Example 5, (S)-6-(3-cyclohexyl-2-(2-oxo-5-(trifluoromethyl)pyrazin-1(2H)-yl)propanamido)nicotinic acid] |  |  | 220 to 310 nM
5 | O=C(O)c1ccc(NC(=O)[C@H](CC2CCC2)n2cc(C(F)(F)F)ncc2=O)nc1 [Example 9, (S)-6-(3-cyclobutyl-2-(2-oxo-5-(trifluoromethyl)pyrazin-1(2H)-yl)propanamido)nicotinic acid] |  |  | 1250 nM
6 | Cc1ccc(NC(=O)[C@H](CC2CCOCC2)n2cc(C(F)(F)F)ncc2=O)nc1 [Example 1, (S)-N-(5-methylpyridin-2-yl)-2-(2-oxo-5-(trifluoromethyl)pyrazin-1(2H)-yl)-3-(tetrahydro-2H-pyran-4-yl)propanamide] | 100% | 64 µM | 
7 | O=C(O)c1ccc(NC(=O)[C@H](CC2CCOCC2)n2cc(C(F)(F)F)ncc2=O)nc1 [Example 6, (S)-6-(2-(2-oxo-5-(trifluoromethyl)pyrazin-1(2H)-yl)-3-(tetrahydro-2H-pyran-4-yl)propanamido)nicotinic acid] |  |  | 8900 nM
8 | CC(C)C[C@@H](C(=O)Nc1ccc(C(=O)O)cn1)n1cc(C(F)(F)F)ncc1=O [Example 7, (S)-6-(4-methyl-2-(2-oxo-5-(trifluoromethyl)pyrazin-1(2H)-yl)pentanamido)nicotinic acid] |  |  | 3300 nM
9 | O=C(Nc1cnccn1)[C@H](CC1CCCC1)n1cc(C(F)(F)F)ncc1=O [Example 3, (S)-3-cyclopentyl-2-(2-oxo-5-(trifluoromethyl)pyrazin-1(2H)-yl)-N-(pyrazin-2-yl)propanamide] | 139 to 143% | 5.6 to 7.1 µM | 
